{"source": "patent US20060252040A1", "about": "“Strand specific detection and quantification” (priority 2002, published 2006)", "key": {"Dengue 2 virus [1]": {"test_system": "Dengue 2 virus", "assay": "Plaque assay of supernatants from Dengue-infected BHK-21 cells grown with ribavirin", "format": "cell-based", "conditions": "m.o.i 0.00125, supernatants harvested day 3 post-infection, varying concentrations of ribavirin", "method": "(§1) Dengue virus infection and titration: Monolayers of C6/36 or BHK-21 cells were grown in 24 well plates and infected the next day with Dengue 2 virus. After adsorption for 1 hour, unbound viruses were removed by aspiration, the cells rinsed with PBS and grown in their respective maintenance media. Cells without Dengue virus infection, or inoculated with heat-inactivated virus (30 minutes at 56° C.), were used as controls. In some experiments, BHK-21 cells were infected with Dengue 2 virus and grown in the absence or presence of varying concentrations of ribavirin (1-fl-D-ribofuranosyl-1,2,4-triazole-3-carboximide; Sigma, St. Louis, Mo.) to inhibit viral transcription. Cytotoxicity of the cells due to ribavirin treatment was determined by CytoTox 96® Non-Radioactive Cytotoxicity Assay (Promega Corporation, Madison, Wis.). The titer of Dengue 2 virus was determined by plaque assay with BHK-21 cells. […] At day 6 post-infection, cells were fixed and stained with 1% crystal violet-4% formalin solution in phosphate-buffered saline (PBS), and the plaque numbers counted. […]\n(§2) To correlate the levels of replicating virus and the effects of ribavirin, BHK-21 cells were initially infected with Dengue virus at an m.o.i of 0.00125, in the absence or in the presence of varying concentrations of ribavirin. […] The results further validated the utility of this method to quantify the replicative form of the virus."}, "BHK-21 cells": {"test_system": "BHK-21 cells", "assay": "Cytotoxicity by LDH release (CytoTox 96 Non-Radioactive Cytotoxicity Assay)", "format": "cell-based, hamster", "conditions": "highest concentration used, 10 ug/ml, day 3 post-infection", "method": "as §1, §2"}, "Dengue 2 virus [2]": {"test_system": "Dengue 2 virus", "assay": "RT and real-time quantitative PCR of Dengue RNA in infected BHK-21 cells treated with ribavirin", "format": "cell-based", "conditions": "m.o.i 0.00125, day 3 post-infection", "method": "RT-PCR and real-time quantitative PCR of Dengue nucleic acids: Total RNA was prepared from infected cells using the TRizol® Reagent (Invitrogen Life Technologies, Carlsbad, Calif.) according to manufacturer's instructions. The RNA obtained was quantified by spectrophotometry, and their integrity analyzed by gel electrophoresis. The RT reaction was performed at 42° C. on 2-5 ug of total RNA as described (21) using 100 U of M-MLV (Promega Corporation, Madison, Wis.) with either 12.5 pmoles of random hexamers (Promega Corporation, Madison, Wis.) or DNS-1 (5′-[…]-3′ (SEQ ID NO: 5)) in a total volume of 10 ul. […] The calculated ΔG of the hairpin loop at the RT step was −2.9 kcal/mol, with a Tm (melting temperature) of 62° C. […] However, with the conditions used for PCR, the ΔG and the Tm of the hairpin loop were −0.4 kcal/mol and 64° C. respectively.\nAll real-time quantitative PCR was performed on the iCycler jQ™ Multi-Color Real Time PCR Detection System (Bio-Rad, Hercules, Calif.). The threshold cycles (Ct) were calculated using the Optical interface v2.3B (Bio-Rad, Hercules, Calif.). […] Unless stated otherwise, all real-time quantitative PCR was performed with 40 cycles of 30 s denaturation at 95° C., 30 s annealing at 60° C. and 30 s extension at 72° C. […]"}, "[3]": {"test_system": "RNA viruses including Dengue", "conditions": "Koff et al., 1982; Sidwell, 1979; cited from earlier work"}}}
{"smiles": "NC(=O)c1ncn([C@@H]2O[C@H](CO)[C@@H](O)[C@H]2O)n1", "note": "[Ribavirin, 1-fl-D-ribofuranosyl-1,2,4-triazole-3-carboximide]", "values": [{"measurement": "viral replication (relative PFU)", "setting": "Dengue 2 virus [1]", "result": "inhibited viral replication in a concentration dependent manner"}, {"measurement": "cell death (LDH release)", "setting": "BHK-21 cells", "result": "did not induce detectable cell death"}, {"measurement": "replicative, negative Dengue RNA strand", "setting": "Dengue 2 virus [2]; RT with DNS-1, increasing concentrations of ribavirin", "result": "concomitant decrease with increasing concentrations of ribavirin"}, {"measurement": "viral transcripts, random hexamer-primed RT, primers to the envelope region", "setting": "Dengue 2 virus [2]; varying concentrations of ribavirin", "result": "corresponding decrease in viral transcripts"}, {"measurement": "replication of RNA viruses", "setting": "[3]", "result": "known to inhibit the replication of many RNA viruses including Dengue"}]}
